Measurements from US20190060330A1, “APPLICATION OF 4-HYDROXY SALICYLANILIDE IN PREPARATION OF ANTI-MYELOMA OR ANTI-LYMPHOMA DRUGS” (priority 2016, published 2019).
“And” between values parts separate entries of the source, which are not always exact repeats. Equal values may be shown once. “Also recorded” adds a separate entry of the source.

Legend:
H929 cells = assay: Animal experiment for multiple myeloma: subcutaneous H929 tumors in nude mice; format: in vivo, BALB/C nude mice; conditions: for Tumor volume, mean / Tumor volume, individual mice No. 1-4: caudal vein
Procedure: (1) Cell line: human multiple myeloma cells (H929 cells) (from ATCC, USA. The cells were passaged and preserved in the applicant's laboratory), were cultured in a 1640 culture medium (containing 10% fetus bovine serum).
(2) Experimental animals: Male BALB/C nude mice (4-6 week old, purchased from Shanghai Sippr-BK laboratory animal Co. Ltd), were housed in an SPF condition (Center Laborotory Animal Room, Shanghai Tenth People's Hospital).
The cells were cultured in 1640 a 1640 culture medium (containing 10% fetus bovine serum, pH 7.2) supplemented with 2 mmol/L glutamine. The resultant was cultured in a incubator at 37° C. under 5% CO2 environment.
(§1) The 1640 medium containing 3.5×10^6 H929 cells was injected subcutaneously into the right axilla of the nude mice, and when the tumors grew to a measurable size, the mice were randomly assigned into the control group and the administration group. The nude mice in the administration group were injected through caudal vein with 4-hydroxy salicylanilide at 50 mg/kg and 100 mg/kg per day. The nude mice in the control group were injected with the same volume of solvent (200 μL, 5% DMSO+4% castor oil+91% normal saline). The tumor sizes were measured every two days (measuring the length and width of the tumor, tumor volume=0.5×(width)^2×length). The mice were sacrificed after a 22-day administration and the tumors were taken for taking photos.

OCI-LY8 cells = assay: Animal experiment against lymphoma: subcutaneous OCI-LY8 tumors in nude mice; format: in vivo, BALB/C nude mice; conditions: 60 mg/kg every other day, caudal vein, 18 days
Procedure: (1) Cell lines: human lymphoma cells (OCI-LY8 cells) (from ATCC, USA. The cells were passaged and preserved in the applicant's laboratory) were cultured in IMDM (containing 10% fetus bovine serum).
(2) Experimental animals: referring to Example 2.
as §1, with “IMDM” for “1640 medium”, “3×10^6 OCI-LY8” for “3.5×10^6 H929”, “60” for “50”, “ever other” for “and 100 mg/kg per”, “volume=4π/3×(width/2)^2×(length/2)).” for “volume=0.5×(width)^2×length).”, “18-day” for “22-day”

[1] = target: T1, Ribonucleotide reductase (RR) (Homo sapiens, UniProt P31350); conditions: shown in studies; cited from earlier work
T1 sequence (P31350 1-389): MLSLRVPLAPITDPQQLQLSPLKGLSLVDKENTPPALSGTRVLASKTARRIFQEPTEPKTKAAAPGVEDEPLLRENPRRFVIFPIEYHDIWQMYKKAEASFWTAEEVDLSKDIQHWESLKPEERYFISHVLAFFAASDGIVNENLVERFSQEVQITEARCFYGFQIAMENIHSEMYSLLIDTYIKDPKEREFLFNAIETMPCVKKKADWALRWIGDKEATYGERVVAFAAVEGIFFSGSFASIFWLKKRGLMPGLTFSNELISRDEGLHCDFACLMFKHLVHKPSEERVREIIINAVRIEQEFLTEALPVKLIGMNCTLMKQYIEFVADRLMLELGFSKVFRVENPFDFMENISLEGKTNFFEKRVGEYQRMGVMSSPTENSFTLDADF

Compound: O=C(Nc1ccc(O)cc1)c1ccccc1O
- Tumor volume, mean (H929 cells; 50 mg/kg per day, day 18): 1.79 cm^3
- Tumor volume, individual mice No. 1-4 (H929 cells; 50 mg/kg per day, day 20): 2.59 cm^3 and 2.22 cm^3 and 1.77 cm^3 and 2.12 cm^3
- Tumor volume, mean (H929 cells; 50 mg/kg per day, day 20): 2.17 cm^3
- Tumor volume, individual mice No. 1-4 (H929 cells; 50 mg/kg per day, day 22): 3.39 cm^3 and 2.44 cm^3 and 2.19 cm^3 and 2.89 cm^3
- Tumor volume, mean (H929 cells; 50 mg/kg per day, day 22): 2.72 cm^3
- Tumor volume, individual mice No. 1-4 (H929 cells; 100 mg/kg per day, day 0): 0.10 cm^3 and 0.08 cm^3 and 0.04 cm^3 and 0.07 cm^3
- Tumor volume, mean (H929 cells; 100 mg/kg per day, day 0): 0.07 cm^3
- Tumor volume, individual mice No. 1-4 (H929 cells; 100 mg/kg per day, day 2): 0.12 cm^3 and 0.09 cm^3 and 0.08 cm^3 (2×)
- Tumor volume, mean (H929 cells; 100 mg/kg per day, day 2): 0.09 cm^3
- Tumor volume, individual mice No. 1-4 (H929 cells; 100 mg/kg per day, day 4): 0.13 cm^3 (2×) and 0.14 cm^3 and 0.10 cm^3
- Tumor volume, mean (H929 cells; 100 mg/kg per day, day 4): 0.13 cm^3
- Tumor volume, individual mice No. 1-4 (H929 cells; 100 mg/kg per day, day 6): 0.17 cm^3 (2×) and 0.15 cm^3 and 0.13 cm^3
- Tumor volume, mean (H929 cells; 100 mg/kg per day, day 6): 0.16 cm^3
- Tumor volume, individual mice No. 1-4 (H929 cells; 100 mg/kg per day, day 8): 0.26 cm^3 and 0.20 cm^3 and 0.25 cm^3 and 0.17 cm^3
- Tumor volume, mean (H929 cells; 100 mg/kg per day, day 8): 0.22 cm^3
- Tumor volume, individual mice No. 1-4 (H929 cells; 100 mg/kg per day, day 10): 0.39 cm^3 and 0.23 cm^3 (2×) and 0.31 cm^3
- Tumor volume, mean (H929 cells; 100 mg/kg per day, day 10): 0.29 cm^3
- Tumor volume, individual mice No. 1-4 (H929 cells; 100 mg/kg per day, day 12): 0.53 cm^3 and 0.31 cm^3 and 0.39 cm^3 and 0.25 cm^3
- Tumor volume, mean (H929 cells; 100 mg/kg per day, day 12): 0.37 cm^3
- Tumor volume, individual mice No. 1-4 (H929 cells; 100 mg/kg per day, day 14): 0.77 cm^3 and 0.42 cm^3 and 0.44 cm^3 and 0.27 cm^3
- Tumor volume, mean (H929 cells; 100 mg/kg per day, day 14): 0.47 cm^3
- Tumor volume, individual mice No. 1-4 (H929 cells; 100 mg/kg per day, day 16): 0.93 cm^3 and 0.49 cm^3 and 0.50 cm^3 and 0.32 cm^3
- Tumor volume, mean (H929 cells; 100 mg/kg per day, day 16): 0.56 cm^3
- Tumor volume, individual mice No. 1-4 (H929 cells; 100 mg/kg per day, day 18): 1.20 cm^3 and 0.57 cm^3 (2×) and 0.31 cm^3
- Tumor volume, mean (H929 cells; 100 mg/kg per day, day 18): 0.66 cm^3
- Tumor volume, individual mice No. 1-4 (H929 cells; 100 mg/kg per day, day 20): 1.27 cm^3 and 0.63 cm^3 and 0.65 cm^3 and 0.34 cm^3
- Tumor volume, mean (H929 cells; 100 mg/kg per day, day 20): 0.72 cm^3
- Tumor volume, individual mice No. 1-4 (H929 cells; 100 mg/kg per day, day 22): 1.39 cm^3 and 0.71 cm^3 and 0.80 cm^3 and 0.40 cm^3
- Tumor volume, mean (H929 cells; 100 mg/kg per day, day 22): 0.82 cm^3
- Inhibition of tumor growth in animals (in words) (H929 cells; H929 tumors in nude mice, 50 and 100 mg/kg per day, 22 days, dose-dependent, P<0.01 at day 22): significantly inhibit the tumor growth; also recorded: effective in inhibiting the growth of multiple myeloma
- Inhibition of growth of lymphoma in nude mice (in words) (OCI-LY8 cells): effectively inhibit the growth of lymphoma
- Inhibition of Ribonucleotide reductase (in words) [1]: inhibitor
